Measured values as given in patent EP0364941A1, “Branched-chain alkyl esters of 2-(4-(2-piperidino ethoxy)benzoyl)benzoic acid, processes for their preparation and their use as spasmolytic agents” (HOECHST AKTIENGESELLSCHAFT, priority 1988, dated 1990).

Assays:
Assay type in all cases: in vivo
large Bowel = test: Motility of the large bowel (colonic motor complex) in conscious dogs
Description: Male dogs (THG Tierhandelsgesellschaft Rodenbach, Hoe:BEAK (Beagle)) weighing 15 - 20 kg were used in all experiments.
(§1) At least 4 weeks prior the experiment the dogs had been equipped with miniaturised strain gage force transducers (T1-T2) (2x4mm), sutured onto the gut at the locations mentioned below. The cables of the transducers were embedded into a cannula which carried the plug for external electric connection. This stainless steel cannula was implanted into the abdominal wall, close below the costal arch. Each transducer was connected to a measuring bridge. The signals were on line stored using a HP 9835 A computer, allowing later analysis of the data. • T1 : Colon ascendens 10 cm aborafrom the ileoceval valve (ICV) • T2 : Colon transversum 25 cm aborad from the ICV
(§2) 18 hours prior to the experiment food was withdrawn from the animals, water ad libidum. All experiments started between 08:00 and 09:00 am.
The following parameters were determined: The duration of the cycle (min) The duration of the colonic motor complex (CMC) (min) The maximal height of the concentrations (AU: arbitrary units)
Data from the two recording sites (T1-T2) were pooled. […]
For detection of significant differences (p < 0.05) the unpaired t-test was used. Only significant differences were indicated by *.

small intestine [1] = test: Motility of the small intestine in the conscious dog; conditions: for Area under the contraction curve, Postdrug 10 min: 10 min postdrug; for Area under the contraction curve, Postdrug 10 min / Area under the contraction curve, Postdrug 20 min / Area under the contraction curve, Postdrug 30 min / Area under the contraction curve, Postdrug 40 min / Area under the contraction curve, Postdrug 50 min / Area under the contraction curve, Postdrug 60 min / Area under the contraction curve, Predrug -20 - 0: phase I and II; for Area under the contraction curve, Postdrug 20 min: 20 min postdrug; for Area under the contraction curve, Postdrug 30 min: 30 min postdrug; for Area under the contraction curve, Postdrug 40 min: 40 min postdrug; for Area under the contraction curve, Postdrug 50 min: 50 min postdrug; for Area under the contraction curve, Postdrug 60 min: 60 min postdrug; for Inhibition Maximal / Inhibition Mean / ED50: phase I+II activity; for Area under the contraction curve, Predrug -20 - 0: predrug baseline -20 - 0 min; for Duration of action: when postdrug values reached 90 % or more of predrug values; for ED50: Canis lupus familiaris, iv, conscious dog, read-out: intravenous IC₅₀-values determined from maximal inhibition
Description: as §1, with “Male dogs (THG Tierhandelsgesellschaft Rodenbach, Hoe:BEAK (Beagle)) weighing 15 - 20 kg were used in all experiments. At” for “At”, “prior to” for “prior”, “miniaturized” for “miniaturised”, “(T1-T3) (2x4 mm),” for “(T1-T2) (2x4mm),”, “Proximal jejunum” for “Colon ascendens 10 cm aborafrom the ileoceval valve (ICV)”, “Distal jejunum • T3 : Ileum” for “Colon transversum 25 cm aborad from the ICV”
as §2
The following motility parameters were determined: The integral under the […] at 10 min intervals (mNx10min) as an index of phase I + II activity. The duration of drug action (min.) The duration of the interdigestive migrating complex (IMC) (min) as a measure of phase III activity.
Test Compound II was given at doses of 0.2 and 0.5 mg/kg i.v. or 5 mg/kg i.g., dissolved in saline, in a volume of 1 ml/kg (i.v.) or 2 ml/kg (i.g.), n = 3 - 6. Control n = 26.
Buscopan was given at doses of 0.3 and 1 mg/kg i.v., dissolved in saline, in a volume of 1 ml/kg, n = 4 - 6. Pitofenone was given at doses of 1 mg/kg i.v., dissolved in saline, in a volume of 1 ml/kg, n = 8.
ID₅₀-values were determined graphically.

small intestine [2] = test: Antispasmodic activity in anaesthetized dog (carbachol or acetylcholine induced intestinal contractions); conditions: anaesthetised dog
Experimental: Male mongrel dogs of weight range 10 to 15 kg were anaesthetised with pentobarbitone sodium (35 mg/ kg,i.v.). Slow i.v. infusion of pentobarbitone (5 mg/kg/hour) was given for maintenance anaesthesia. The endotracheal tube was inserted to facilitate spontaneous breathing. Both femoral artery and vein were cannulated respectively for recording blood pressure and administering drugs. After laparotomy, a small portion of small intestine distal to duodenum was isolated and saline filled balloon inserted and the opening was sutured. A fine polyethylene cannula was then inserted into the mesenteric artery which supplies to the area of intestine containing balloon for injection of carbachol or acetylcholine. A Statham pressure transducer was then attached to balloon cannula for recording both circular and longitudinal muscle contractions. All the parameters were recorded on 4 channel Nihon-Kohden recorder. The intestinal contractions were recorded after administering a standard dose of carbachol or acetylcholine (0.5 to 3 µg). Test compounds I and II were given at different doses 3,10 and 20 mg/kg intra-duodenally and spasmolytic activity was assessed at various time intervals. Anti-spasmodic activity was assessed by calculating percent reduction in agonist induced contractions and also noting onset and duration of activity. The test compounds were dissolved in distilled water (1% soln.). Table 3 Test compounds I and II were given at different doses (10, 30, 100, 300 and 1000 µg/kg) intravenously and spasmolytic activity was assessed at different time intervals. Anti-spasmodic activity was assessed by calculating percent reduction in agonist induced contractions. The ID₅₀ value was calculated from the dose response curve.

small intestine [3] = test: Gastrointestinal propulsion (charcoal transport) in mice
Experimental: Ref.: J.M.A. Zwagemakers and V. Claassen, Arzneim-Forsch/-Drug Res. 30 (II) Nr.9, p.1517 (1980).
The test compounds I and II were given orally by gavage in a range of 10 to 100 mg/kg doses 30 min before charcoal suspension (0.2 ml/animal, 10% charcoal in 5% gum acacia) in 18 hrs fasted mice (male or female, weight range 18 to 25 g). 30 min after administration of charcoal animals were killed and the extent of charcoal propulsion in the small intestine was measured. The inhibitory activity of test compound on charcoal transport was assessed as percent inhibition compared to length of intestine. For control group 10 ml/kg of saline was given.

How did the “Duration CMC” value (large Bowel; 3 mg/kg intragastrically) turn out when CCCC[N+]1(C)[C@@H]2C[C@@H](OC(=O)[C@H](CO)c3ccccc3)C[C@H]1[C@@H]1O[C@@H]12 (stereo partly shown) [Buscopan] was run?
The value was 6 ± 4 min.

And the “Duration Cycle” value (large Bowel; 3 mg/kg intragastrically)?
Its value is 35 ± 19 min.

And the “Max.heigth of CMC” value (large Bowel; 3 mg/kg intragastrically)?
The value was 35±17 AU.

And the “Duration CMC” value (large Bowel; 10 mg/kg intragastrically)?
Its value is 5 ± 1 min.

What about the “Duration Cycle” value (large Bowel; 10 mg/kg intragastrically) of the same molecule?
Its value is 32 ± 5 min.

And the “Max.heigth of CMC” value (large Bowel; 10 mg/kg intragastrically)?
The value was 35±10 AU.

And the “effect on colonic motility” value (large Bowel; 3 and 10 mg/kg i.g.)?
The value was “no effect”.

And the “Area under the contraction curve, Postdrug 10 min” value (from here on “Area … Postdrug 10 min”) (small intestine [1]; 0.3 mg/kg i.v.)?
The value was 1.78 mN x 10 min.

What about the “Area under the contraction curve, Postdrug 20 min” value (“Area … Postdrug 20 min” for short) (small intestine [1]; 0.3 mg/kg i.v.) of the same molecule?
The value was 1.74 mN x 10 min.

What about the “Area under the contraction curve, Postdrug 30 min” value (“Area … Postdrug 30 min” for short) (small intestine [1]; 0.3 mg/kg i.v.) of the same molecule?
Its value is 2.17 mN x 10 min.

And the “Area under the contraction curve, Postdrug 40 min” value (“Area … Postdrug 40 min” for short) (small intestine [1]; 0.3 mg/kg i.v.)?
Its value is 2.15 mN x 10 min.

And the “Area under the contraction curve, Postdrug 50 min” value (“Area … Postdrug 50 min” for short) (small intestine [1]; 0.3 mg/kg i.v.)?
Its value is 1.80 mN x 10 min.

And the “Area under the contraction curve, Postdrug 60 min” value (“Area … Postdrug 60 min” for short) (small intestine [1]; 0.3 mg/kg i.v.)?
The value was 1.60 mN x 10 min.

What about the “Inhibition Maximal” value (small intestine [1]; 0.3 mg/kg i.v.) of the same molecule?
The value was 29%.

What about the “Inhibition Mean” value (small intestine [1]; 0.3 mg/kg i.v.) of the same molecule?
Its value is 23 ± 6%.

And the “Area under the contraction curve, Predrug -20 - 0” value (“Area … - 0” for short) (small intestine [1]; 0.3 mg/kg i.v.)?
The value was 2.09 mN x 10 min.

What about the Duration of action (small intestine [1]; 0.3 mg/kg i.v.) of the same molecule?
Its Duration of action is 20 min.

What about the “Area … Postdrug 10 min” value (small intestine [1]; 1 mg/kg i.v.) of the same molecule?
The value was 0.85 mN x 10 min.

What about the “Area … Postdrug 20 min” value (small intestine [1]; 1 mg/kg i.v.) of the same molecule?
Its value is 0.86 mN x 10 min.

What about the “Area … Postdrug 30 min” value (small intestine [1]; 1 mg/kg i.v.) of the same molecule?
Its value is 1.23 mN x 10 min.

And the “Area … Postdrug 40 min” value (small intestine [1]; 1 mg/kg i.v.)?
The value was 2.03 mN x 10 min.

And the “Area … Postdrug 50 min” value (small intestine [1]; 1 mg/kg i.v.)?
Its value is 2.09 mN x 10 min.

And the “Area … Postdrug 60 min” value (small intestine [1]; 1 mg/kg i.v.)?
The value was 1.99 mN x 10 min.

What about the “Inhibition Maximal” value (small intestine [1]; 1 mg/kg i.v.) of the same molecule?
The value was 58%.

What about the “Inhibition Mean” value (small intestine [1]; 1 mg/kg i.v.) of the same molecule?
The value was 52 ± 6%.

What about the “Area … - 0” value (small intestine [1]; 1 mg/kg i.v.) of the same molecule?
The value was 2.03 mN x 10 min.

And the Duration of action (small intestine [1]; 1 mg/kg i.v.)?
The Duration of action was 30 min.

And the ED50 (small intestine [1])?
The ED50 was 0.6 mg/kg.

For COC(=O)c1ccccc1C(=O)c1ccc(OCCN2CCCCC2)cc1.Cl [Test Compound I, Methyl-2-[4-(2-piperidino-ethoxy)-benzoyl]-benzoate hydrochloride], which Duration (small intestine [2]; 20 mg/kg intra-duodenal) is on record?
Its Duration is 40 min.

And the On-set (small intestine [2]; 20 mg/kg intra-duodenal)?
Its On-set is 20 min.

And the Percent Inhibition (small intestine [2]; 20 mg/kg intra-duodenal)?
The Percent Inhibition was 63%.

And the ED50 (small intestine [2]; Canis lupus familiaris, iv, read-out: ID₅₀)?
Its ED50 is 0.14 mg/kg.

And the Duration of action (small intestine [2]; intravenous administration)?
Its Duration of action is 10 to 30 min.

And the “Percent Inhibition” value (small intestine [3]; 60 mg/kg p.o.)?
The value was 24.0 ± 3.0%.

What about the “Percent Inhibition” value (small intestine [3]; 100 mg/kg p.o.) of the same molecule?
The value was 30.0 ± 4.3%.

What about the “Area … Postdrug 10 min” value (small intestine [1]; 1 mg/kg i.v.) of the same molecule?
The value was 1.58 mN x 10 min.

And the “Area … Postdrug 20 min” value (small intestine [1]; 1 mg/kg i.v.)?
Its value is 2.01 mN x 10 min.

And the “Area … Postdrug 30 min” value (small intestine [1]; 1 mg/kg i.v.)?
The value was 2.59 mN x 10 min.

And the “Area … Postdrug 40 min” value (small intestine [1]; 1 mg/kg i.v.)?
The value was 2.29 mN x 10 min.

What about the “Area … Postdrug 50 min” value (small intestine [1]; 1 mg/kg i.v.) of the same molecule?
The value was 3.16 mN x 10 min.

What about the “Area … Postdrug 60 min” value (small intestine [1]; 1 mg/kg i.v.) of the same molecule?
Its value is 3.64 mN x 10 min.

What about the “Inhibition Maximal” value (small intestine [1]; 1 mg/kg i.v.) of the same molecule?
The value was 47%.

And the “Inhibition Mean” value (small intestine [1]; 1 mg/kg i.v.)?
Its value is 29 ± 7%.

What about the “Area … - 0” value (small intestine [1]; 1 mg/kg i.v.) of the same molecule?
The value was 2.96 mN x 10 min.

And the Duration of action (small intestine [1]; 1 mg/kg i.v.)?
The Duration of action was 40 min.

And the ED50 (small intestine [1])?
The ED50 was 1 mg/kg.
